The text below walks through data of patent US20240376090A1, “ISOXAZOLE DERIVATIVES AS MODULATORS OF THE 5-HT2A SEROTONIN RECEPTOR USEFUL FOR THE TREATMENT OF DISORDERED RELATED THERETO” (Arena Pharmaceuticals, Inc., priority 2020, published 2024).

The test deals with 5-HT2A receptor (Homo sapiens (Human), UniProt P28223). The experiment in a line: Radioligand binding assay ([3H]5-HT competition), 5-HT2A. Conditions: [3H]5-HT radioligand, membranes of HEK293 cells expressing recombinant 5-HT2A; Ki from IC50 by Cheng-Prusoff; read-out: 5-HT2A serotonin binding Ki value. Here is the method: Competition binding experiments consisted of addition of 5 μL of serially diluted test compound, 50 μL of radioligand stock diluted in Assay Buffer (20 mM HEPES, pH 7.4, 10 mM MgCl2), and 145 μL of diluted membrane expressing the receptor of interest to 96-well microtiter plates, which were then incubated for one hour at room temperature. Assay incubations were terminated by rapid filtration through Perkin Elmer GF/C filtration plates under vacuum pressure using a 96-well Packard filtration apparatus, followed by washing the filter plates several times with ice cold Assay Buffer. Plates were then dried at 45° C. for a minimum of four hours. Finally, 25 μL of BetaScint scintillation cocktail was added to each well and the plates were counted in a Packard TopCount scintillation counter. In each competition study, test compounds were assayed at 10 concentrations with three replicates at each test concentration. Dose-response curves were constructed to determine IC50 values and these were converted to corresponding Ki values using the Cheng-Prusoff equation.
5-HT2A receptor, sequence (P28223 whole entry): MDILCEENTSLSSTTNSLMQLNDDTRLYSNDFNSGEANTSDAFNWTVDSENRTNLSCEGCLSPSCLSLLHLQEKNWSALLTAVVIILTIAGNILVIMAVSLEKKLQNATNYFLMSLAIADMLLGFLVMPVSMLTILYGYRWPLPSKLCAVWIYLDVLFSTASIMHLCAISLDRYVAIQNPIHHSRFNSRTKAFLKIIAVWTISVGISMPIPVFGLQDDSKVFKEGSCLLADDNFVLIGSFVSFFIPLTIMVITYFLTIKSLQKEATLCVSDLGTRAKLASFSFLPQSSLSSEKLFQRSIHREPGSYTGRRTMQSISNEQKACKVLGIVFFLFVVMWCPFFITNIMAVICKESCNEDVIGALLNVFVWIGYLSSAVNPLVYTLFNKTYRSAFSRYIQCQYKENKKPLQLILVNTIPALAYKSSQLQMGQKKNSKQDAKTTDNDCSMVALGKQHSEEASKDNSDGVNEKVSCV
Consider `COC1CCN(CCOc2ccc(NC(=O)C3CC3)cc2-c2c(C)noc2C)CC1` [Compound 143, N-(3-(3,5-dimethylisoxazol-4-yl)-4-(2-(4-methoxypiperidin-1-yl)ethoxy)phenyl)cyclopropanecarboxamide], for which the Ki came to 84 nM.

As to `CO[C@@H]1CCN(CCOc2ccc(NC(=O)C3CC3)cc2-c2c(C)noc2C)C1` [Compound 145, (R)—N-(3-(3,5-dimethylisoxazol-4-yl)-4-(2-(3-methoxypyrrolidin-1-yl)ethoxy)phenyl)cyclopropanecarboxamide], the Ki came to 5.51 nM. To `Cc1noc(C)c1-c1cc(NC(=O)C2CC2)ccc1OCCN1CC[C@H](O)C1` [Compound 147, (S)—N-(3-(3,5-dimethylisoxazol-4-yl)-4-(2-(3-hydroxypyrrolidin-1-yl)ethoxy)phenyl)cyclopropanecarboxamide] belongs 25.2 nM; to `Cc1noc(C)c1-c1cc(NC(=O)C2CC2)ccc1OCCN1CC[C@@H](O)C1` [Compound 148, (R)—N-(3-(3,5-dimethylisoxazol-4-yl)-4-(2-(3-hydroxypyrrolidin-1-yl)ethoxy)phenyl)cyclopropanecarboxamide], 71.6 nM.

For the compound `CCN(C)CCOc1ccc(NC(=O)C2CC2)cc1-c1c(C)noc1C` [Compound 149, N-(3-(3,5-dimethylisoxazol-4-yl)-4-(2-(ethyl(methyl)amino)ethoxy)phenyl)cyclopropanecarboxamide], the Ki came out at 13.9 nM. For `CCCN(C)CCOc1ccc(NC(=O)C2CC2)cc1-c1c(C)noc1C` [Compound 150, N-(3-(3,5-dimethylisoxazol-4-yl)-4-(2-(methyl(propyl)amino)ethoxy)phenyl)cyclopropanecarboxamide], the Ki turned out to be 13.5 nM.

For the compound `Cc1noc(C)c1-c1cc(NC(=O)C2CC2)ccc1OCCN(C)CC1CC1` [Compound 151, N-(4-(2-((cyclopropylmethyl)(methyl)amino)ethoxy)-3-(3,5-dimethylisoxazol-4-yl)phenyl)cyclopropanecarboxamide], the Ki turned out to be 47.1 nM. For `Cc1noc(C)c1-c1cc(NC(=O)C2CC2)ccc1OCCN(C)C1CCC1` [Compound 152, N-(4-(2-(cyclobutyl(methyl)amino)ethoxy)-3-(3,5-dimethylisoxazol-4-yl)phenyl)cyclopropanecarboxamide] the value was 41.7 nM.

For the compound `CCN(CC)CCOc1ccc(NC(=O)C2CC2)cc1-c1c(C)noc1C` [Compound 153, N-(4-(2-(diethylamino)ethoxy)-3-(3,5-dimethylisoxazol-4-yl)phenyl)cyclopropanecarboxamide], the Ki came to 109 nM. For `Cc1noc(C)c1-c1cc(NC(=O)C2CC2)ccc1OCCN1CC2(COC2)C1` [Compound 155, N-[3-(3,5-dimethylisoxazol-4-yl)-4-[2-(2-oxa-6-azaspiro[3.3]heptan-6-yl)ethoxy]phenyl]cyclopropanecarboxamide] the value was 22 nM; for `Cc1noc(C)c1-c1cc(NC(=O)C2CC2)ccc1OCCN1CCN(C)C(=O)C1` [Compound 156, N-[3-(3,5-dimethylisoxazol-4-yl)-4-[2-(4-methyl-3-oxo-piperazin-1-yl)ethoxy]phenyl]cyclopropanecarboxamide], 145 nM; for `Cc1noc(C)c1-c1cc(NC(=O)C2CC2)ccc1OCCN1CCC12COC2` [Compound 157, N-[3-(3,5-dimethylisoxazol-4-yl)-4-[2-(6-oxa-1-azaspiro[3.3]heptan-1-yl)ethoxy]phenyl]cyclopropanecarboxamide], 2070 nM. To `Cc1noc(C)c1-c1cc(NC(=O)C2CC2)ccc1OCCN1CCC(CC(=O)O)CC1` [Compound 158, 2-[1-[2-[4-(cyclopropanecarbonylamino)-2-(3,5-dimethylisoxazol-4-yl)phenoxy]ethyl]-4-piperidyl]acetic acid] belongs 233 nM; to `Cc1noc(C)c1-c1cc(NC(=O)C2CC2)ccc1OCCN1[C@@H]2COC[C@H]1C2` [Compound 159, N-[3-(3,5-dimethylisoxazol-4-yl)-4-[2-[(1R,5S)-3-oxa-6-azabicyclo[3.1.1]heptan-6-yl]ethoxy]phenyl]cyclopropanecarboxamide], 1.61 nM; to `Cc1noc(C)c1-c1cc(NC(=O)C2CC2)ccc1OCCN1C[C@@H]2C[C@H]1CO2` [Compound 160, N-(4-(2-((1S,4S)-2-oxa-5-azabicyclo[2.2.1]heptan-5-yl)ethoxy)-3-(3,5-dimethylisoxazol-4-yl)phenyl)cyclopropanecarboxamide], 4.07 nM. With `Cc1noc(C)c1-c1cc(NC(=O)c2ccccc2)ccc1OCCN1C[C@@H]2C[C@H]1CO2` [Compound 161, N-[3-(3,5-dimethylisoxazol-4-yl)-4-[2-[(1S,4S)-2-oxa-5-azabicyclo[2.2.1]heptan-5-yl]ethoxy]phenyl]benzamide], the Ki is 6.4 nM. For `Cc1noc(C)c1-c1cc(NC(=O)C2(F)CC2)ccc1OCCN1C[C@@H]2C[C@H]1CO2` [Compound 162, N-[3-(3,5-dimethylisoxazol-4-yl)-4-[2-[(1S,4S)-2-oxa-5-azabicyclo[2.2.1]heptan-5-yl]ethoxy]phenyl]-1-fluoro-cyclopropanecarboxamide] the value was 4.7 nM; for `Cc1noc(C)c1-c1cc(NC(=O)c2ccnn2C)ccc1OCCN1C[C@@H]2C[C@H]1CO2` [Compound 163, N-[3-(3,5-dimethylisoxazol-4-yl)-4-[2-[(1S,4S)-2-oxa-5-azabicyclo[2.2.1]heptan-5-yl]ethoxy]phenyl]-2-methyl-pyrazole-3-carboxamide], 6.73 nM. As to `Cc1noc(C)c1-c1cc(NC(=O)C2CC2)ccc1OCCN1C[C@H]2C[C@H]2C1` [Compound 164, N-[4-[2-[(1R,5S)-3-azabicyclo[3.1.0]hexan-3-yl]ethoxy]-3-(3,5-dimethylisoxazol-4-yl)phenyl]cyclopropanecarboxamide], the Ki was determined as 13.8 nM.

Take `Cc1noc(C)c1-c1cc(NC(=O)c2cccc(C(F)(F)F)c2)ccc1OCCN1CCOCC1` [Compound 165, N-[3-(3,5-dimethylisoxazol-4-yl)-4-(2-morpholinoethoxy)phenyl]-3-(trifluoromethyl)benzamide]: the Ki amounted to 1.08 nM. To `Cc1noc(C)c1-c1cc(NC(=O)C2CC2)ccc1OCCN1CCOCC1` [Compound 166, N-[3-(3,5-dimethylisoxazol-4-yl)-4-(2-morpholinoethoxy)phenyl]cyclopropanecarboxamide] belongs 6.54 nM; to `Cc1noc(C)c1-c1cc(NC(=O)C2CC2)ccc1OCCN1CCCC1` [Compound 167, N-[3-(3,5-dimethylisoxazol-4-yl)-4-(2-pyrrolidin-1-ylethoxy)phenyl]cyclopropanecarboxamide], 7.71 nM; to `CC(=O)N1CCN(CCOc2ccc(NC(=O)C3CC3)cc2-c2c(C)noc2C)CC1` [Compound 168, N-[4-[2-(4-acetylpiperazin-1-yl)ethoxy]-3-(3,5-dimethylisoxazol-4-yl)phenyl]cyclopropanecarboxamide], 12.2 nM.

As to `Cc1noc(C)c1-c1cc(NC(=O)C2CC2)ccc1OC[C@@H]1CCCCN1` [Compound 170, (S)—N-(3-(3,5-dimethylisoxazol-4-yl)-4-(piperidin-2-ylmethoxy)phenyl)cyclopropanecarboxamide], the Ki was found to be 49.6 nM. For `Cc1noc(C)c1-c1cc(NC(=O)C2CC2)ccc1OC[C@@H]1COCCN1` [Compound 171, (S)—N-(3-(3,5-dimethylisoxazol-4-yl)-4-(morpholin-3-ylmethoxy)phenyl)cyclopropanecarboxamide] the value was 184 nM; for `Cc1noc(C)c1-c1cc(NC(=O)C2CC2)ccc1OC[C@H]1COCCN1` [Compound 173, (R)—N-(3-(3,5-dimethylisoxazol-4-yl)-4-(morpholin-3-ylmethoxy)phenyl)cyclopropanecarboxamide], 96.9 nM.

Regarding `Cc1noc(C)c1-c1cc(NC(=O)C2CC2)ccc1OCC1CCN1` (stereo not drawn) [Compound 174, N-[4-(azetidin-2-ylmethoxy)-3-(3,5-dimethylisoxazol-4-yl)phenyl]cyclopropanecarboxamide], the Ki was 48 nM. For the compound `Cc1noc(C)c1-c1cc(NC(=O)C2CC2)ccc1OC[C@H]1CCCN1` [Compound 175, (R)—N-(3-(3,5-dimethylisoxazol-4-yl)-4-(pyrrolidin-2-ylmethoxy)phenyl)cyclopropanecarboxamide], the Ki is 41.6 nM. To `Cc1noc(C)c1-c1cc(NC(=O)C2CC2)ccc1OC[C@@H]1CCCN1` [Compound 176, (S)—N-(3-(3,5-dimethylisoxazol-4-yl)-4-(pyrrolidin-2-ylmethoxy)phenyl)cyclopropanecarboxamide] belongs 395 nM; to `Cc1noc(C)c1-c1cc(NC(=O)c2ccnn2C)ccc1OC[C@H]1CCCCN1` [Compound 177, N-[3-(3,5-dimethylisoxazol-4-yl)-4-[[(2R)-2-piperidyl]methoxy]phenyl]-2-methyl-pyridinerazole-3-carboxamide], 4.22 nM; to `Cc1noc(C)c1-c1cc(NC(=O)C2CC2)ccc1O[C@H]1CCCNC1` [Compound 178, N-[3-(3,5-dimethylisoxazol-4-yl)-4-[[(3S)-3-piperidyl]oxy]phenyl]cyclopropanecarboxamide], 718 nM. Regarding `Cc1noc(C)c1-c1cc(NC(=O)C2CC2)ccc1O[C@@H]1CCCNC1` [Compound 179, (R)—N-(3-(3,5-dimethylisoxazol-4-yl)-4-(piperidin-3-yloxy)phenyl)cyclopropanecarboxamide], the Ki is 85.9 nM. To `Cc1noc(C)c1-c1cc(NC(=O)C2CC2)ccc1O[C@H]1CCNC1` [Compound 180, (S)—N-(3-(3,5-dimethylisoxazol-4-yl)-4-(pyrrolidin-3-yloxy)phenyl)cyclopropanecarboxamide] belongs 186 nM.
